# System: Jurkat (JM) cells
# Assay: Staining of proliferating Jurkat cells with labelling agent and propidium iodide, fluorescence microscopy
# Assay type: cell-based
# Details: 10 μL agent (100 μg pr. mL DMSO) added to 90 μL cells, only exception PI positive cells
# Procedure: (§1) Materials and Methods. Jurkat (JM) cells were grown at 37° C. in a humidified air atmosphere with 5% CO2 in RPMI (Invitrogen, #61870) supplemented with 10% heat-inactivated fetal bovine serum (Invitrogen, #10108-165). 90 μL proliferating Jurkat cells (cell density 1.2×10^6, 99% viable determined using the NC-100 NucleoCounter system following the manufacturer's (ChemoMetec A/S) protocol) were added 10 μL NAM (N-(9-acridinyl)maleimide, Sigma, #01665, CAS no. 49759-20-8) dissolved in DMSO (100 μg NAM pr. mL DMSO) and mixed by pipetting. Cells were loaded into a NucleoCassette, containing the DNA stain propidium iodide (PI). The cells were investigated using an Olympus IX50 fluorescence microscope, and images were captured using a Lumenera CCD camera and in-house developed software. PI and NAM fluorescence were detected using, respectively, U-MWG2 (green long pass: 510-550 nm) and U-MNUA2 (UV band pass, 330-385 nm) filter cubes (Olympus).
# as §1, with “1.0×10^6,” for “1.2×10^6,”, “(ChemoMetec)” for “(ChemoMetec A/S)”, “CPM (7-diethylamino-3-[4′-maleimidylphenyl]-4-methylcoumarin, Chemodex Ltd.,” for “NAM (N-(9-acridinyl)maleimide, Sigma, #01665,”, “76877-33-3)” for “49759-20-8)”, “CPM” for “NAM”
# as §1, with “1.1×10^6, 98%” for “1.2×10^6, 99%”, “(ChemoMetec)” for “(ChemoMetec A/S)”, “PM (N-(1-Pyrenyl)maleimide, Sigma P7908” for “NAM (N-(9-acridinyl)maleimide, Sigma, #01665,”, “42189-56-0)” for “49759-20-8)”, “PM” for “NAM”, “Cells were loaded into a NucleoCassette, containing the DNA stain propidium iodide (PI).” left out
# Materials and Methods. […] 90 μL proliferating Jurkat cells (cell density 1.1×10^6, 98% viable determined using the NC-100 NucleoCounter system following the manufacturer's (ChemoMetec) protocol) were added 10 μL CPI (7-diethylamino-3-((4′-(iodoacetyl)amino)phenyl)-4-methylcoumarin, Sigma 78264 CAS no. 76877-34-4) dissolved in DMSO (100 μg CPI pr. mL DMSO) and mixed by pipetting. […] The cells were investigated using an Olympus IX50 fluorescence microscope, and images were captured using a Lumenera CCD camera and in-house developed software. PI and CPI fluorescence were detected using, respectively, U-MWG2 (green long pass: 510-550 nm) and U-MNUA2 (UV band pass, 330-385 nm) filter cubes (Olympus). […]
structure (smiles),measurement,value
"O=C1C=CC(=O)N1c1c2ccccc2nc2ccccc12 [NAM, N-(9-acridinyl)maleimide]",staining of cells (UV filter) versus PI positive cells,nearly all cells in the proliferating Jurkat cell culture were stained by NAM
